Results as given in patent US20250186442A1, “Obicetrapib and Ezetimibe Combination Treatment and Fixed Dose Pharmaceutical Compositions” (NewAmsterdam Pharma B.V., priority 2022, published 2025).

What was measured:
[1] = test system: ApoB; assay: ROSE2 phase 2b clinical trial - ApoB; type: in vivo, human; conditions: obicetrapib 10 mg, ezetimibe 10 mg
Description: The secondary objectives of this study include the following, in hierarchical order: • To evaluate the effect of obicetrapib 10 mg monotherapy compared with placebo, when used as an adjunct to high-intensity statin therapy, on LDL-C at Day 84; • To evaluate the effect of obicetrapib 10 mg+ezetimibe 10 mg combination therapy compared with placebo, when used as an adjunct to high-intensity statin therapy, on ApoB at Day 84; and • To evaluate the effect of obicetrapib 10 mg monotherapy compared with placebo, when used as an adjunct to high-intensity statin therapy, on ApoB at Day 84.
This study will be a placebo-controlled, double-blind, randomized, Phase 2 study to evaluate the efficacy, safety, and tolerability of obicetrapib 10 mg, both in combination with ezetimibe 10 mg and as monotherapy, as an adjunct to high-intensity statin therapy. This study will take place at approximately 20 sites in the United States.
Up to 2 weeks after the Screening Visit, participants will return to the site on Day 1 (Visit 2) and confirm study eligibility before being randomized and beginning treatment. Approximately 114 eligible participants (38 participants per treatment group) will be randomized in a 1:1:1 ratio to 1 of the following treatment groups: • Combination therapy: Obicetrapib 10 mg+ezetimibe 10 mg (administered as one 10 mg obicetrapib tablet and one 10 mg ezetimibe capsule); • Obicetrapib monotherapy: Obicetrapib 10 mg (administered as one 10 mg obicetrapib tablet and 1 placebo capsule); or • Placebo (administered as 1 placebo tablet and 1 placebo capsule).
The secondary efficacy endpoints include the following, in hierarchical order: • Percent change from Day 1 to Day 84 in LDL-C for the obicetrapib 10 mg monotherapy • treatment group compared with the placebo group; • Percent change from Day 1 to Day 84 in ApoB for the obicetrapib 10 mg+ezetimibe 10 mg • combination treatment group compared with the placebo group; and • Percent change from Day 1 to Day 84 in ApoB for the obicetrapib 10 mg monotherapy treatment group compared with the placebo group.
Blood samples for the lipid profile must be obtained under fasting conditions (ie, after the participant has fasted for approximately 10 hours). For the purposes of this study, fasting will be defined as nothing by mouth except water and any essential medications. If a participant is not fasting, the Investigator should reschedule the visit as soon as possible. LDL-C level will be calculated using the Friedewald equation unless TG≥400 mg/dL or LDL-C≤50 mg/dL; in both cases, LDL-C level will be measured directly by preparative ultracentrifugation, also referred to as beta quantification. Additionally, LDL-C will be measured by preparative ultracentrifugation, also referred to as beta quantification, at baseline (Visit 2) and at the end of the 12-week Treatment Period (Visit 4) for all participants.
The Modified ITT (mITT) Population will include all participants in the ITT Population who receive at least 1 dose of any study drug and have a baseline value for the LDL-C assessment. Any efficacy measurement obtained during the Safety Follow-up Visit (Visit 5) after a participant permanently discontinues the study drug or after a participant receives an excluded medication and/or procedure will be removed from the mITT analysis. Treatment classification will be based on the randomized treatment. The mITT Population will be used for the primary analysis of all efficacy endpoints.

[2] = ROSE2 phase 2b clinical trial - safety and tolerability (adverse events); type: in vivo, human; conditions: All Randomized Participants; obicetrapib 10 mg (N = 39), obicetrapib 10 mg + ezetimibe 10 mg (N = 40)
Description: The exploratory objectives of this study include the following: • To evaluate the effect of obicetrapib 10 mg+ezetimibe 10 mg combination therapy and obicetrapib 10 mg monotherapy, when used as an adjunct to high-intensity statin therapy, on non-high-density lipoprotein cholesterol (non-HDL-C), very low-density lipoprotein cholesterol (VLDL-C), HDL-C, TG, ApoE, Lp(a), and HDL-ApoE at Day 84; • To evaluate the effect of obicetrapib 10 mg+ezetimibe 10 mg combination therapy and obicetrapib 10 mg monotherapy, when used as an adjunct to high-intensity statin therapy, on the proportion of participants achieving predefined LDL-C targets at Day 84; • To assess the mean trough plasma levels of obicetrapib 10 mg+ezetimibe 10 mg combination therapy and obicetrapib 10 mg monotherapy at steady state on Days 28, 84, and 112; and • To evaluate the safety and tolerability profiles of obicetrapib 10 mg+ezetimibe 10 mg combination therapy and obicetrapib 10 mg monotherapy, when used as an adjunct to high-intensity statin therapy, assessed by clinical laboratory values and incidence of AEs.
The safety and tolerability profile of obicetrapib 10 mg, both in combination with ezetimibe 10 mg and as monotherapy, will be assessed by clinical laboratory assessments (chemistry and hematology), vital signs, physical examinations, and the incidence of AEs.
An AE can therefore be any unfavorable and/or unintended sign (including an abnormal laboratory finding), symptom, or disease temporally associated with the use of an investigational medicinal product, whether or not related to the investigational medicinal product. All AEs, including observed or volunteered problems, complaints, or symptoms, are to be recorded on the appropriate eCRF.
AEs, which include clinical laboratory assessment variables, will be monitored and documented from the time of first dose of study treatment until completion of Visit 5. Participants should be instructed to report any AE that they experience to the Investigator, whether or not they think the event is due to study drug. Beginning at the date of the first dose of study treatment, Investigators should make an assessment for AEs at each visit and record the event on the appropriate AE eCRF.
The Investigator will assess the severity (intensity) of each AE as mild, moderate, or severe, and will also categorize each AE as to its potential relationship to study drug using the categories of yes or no.
• Mild—An event that is easily tolerated and generally not interfering with normal daily activities. • Moderate—An event that is sufficiently discomforting to interfere with normal daily activities. • Severe—An event that is incapacitating with inability to work or perform normal daily activities.
An AE or adverse reaction is considered serious if, in the view of either the Investigator or Sponsor, it results in any of the following outcomes: • Death; • A life-threatening AE;
The Safety Population will include all participants who receive at least 1 dose of any study drug. Treatment classification will be based on the actual treatment received. The Safety Population will be the primary population used for the safety analyses.

## CCOC(=O)N1c2ccc(C(F)(F)F)cc2[C@@H](N(Cc2cc(C(F)(F)F)cc(C(F)(F)F)c2)c2ncc(OCCCC(=O)O)cn2)C[C@H]1CC [Obicetrapib, {4-[(2-{[3,5-bis(trifluoromethyl)benzyl][(2R,4S)-1-(ethoxycarbonyl)-2-ethyl-6-(trifluoromethyl)-1,2,3,4-tetrahydroquinolin-4-yl]amino}pyrimidin-5-yl)oxy]butanoic acid}]
[1]; Exploratory Population
  ApoB Change from Baseline to Day 28, Mean: -24.2 mg/dL
  ApoB Change from Baseline to Day 28, Median: -23.0 mg/dL
  ApoB Change from Baseline to Day 84, Mean: -20.5 mg/dL
  ApoB Change from Baseline to Day 84, Median: -21.5 mg/dL
  ApoB Day 28, Mean: 65.4 mg/dL
  ApoB Day 28, Median: 64.5 mg/dL
  ApoB Day 84, Mean: 69.1 mg/dL
  ApoB Day 84, Median: 65.0 mg/dL
  ApoB Percent Change from Baseline to Day 28 (%), Mean: −26.00%
  ApoB Percent Change from Baseline to Day 28 (%), Median: −26.00%
  ApoB Percent Change from Baseline to Day 84 (%), Mean: −21.73%
  ApoB Percent Change from Baseline to Day 84 (%), Median: −24.20%
[1]; mITT Population
  ApoB Change from Baseline to Day 28, Mean: -18.9 mg/dL
  ApoB Change from Baseline to Day 28, Median: -20.0 mg/dL
  ApoB Change from Baseline to Day 84, Mean: -10.4 mg/dL
  ApoB Change from Baseline to Day 84, Median: -14.5 mg/dL
  ApoB Day 28, Mean: 73.4 mg/dL
  ApoB Day 28, Median: 66.0 mg/dL
  ApoB Day 84, Mean: 82.4 mg/dL
  ApoB Day 84, Median: 72.0 mg/dL
  ApoB Percent Change from Baseline to Day 28 (%), Mean: −19.16%
  ApoB Percent Change from Baseline to Day 28 (%), Median: −23.10%
  ApoB Percent Change from Baseline to Day 84 (%), Mean: −9.50%
  ApoB Percent Change from Baseline to Day 84 (%), Median: −17.35%
[2]
  Primary reason for early study discontinuation: ADVERSE EVENT, (%): (2.6) %
  Primary reason for treatment discontinuation: ADVERSE EVENT, (%): (5.1) %
